# What was measured:
# Type in all cases: cell-based
# [1] = molecular target: T1, 5-hydroxytryptamine receptor 6 (Homo sapiens, UniProt P50406); test: Displacement of [3H]LSD from human recombinant 5-HT6 receptor expressed in CHO-K1 cells at 1 uM incubated for 3 hrs by scintillation counting analysis
# D(3) dopamine receptor [2] = molecular target: T2, D(3) dopamine receptor (Homo sapiens, UniProt P35462); test: Displacement of [3H]raclopride from human recombinant dopamine D3 receptor expressed in CHO-K1 cells at 1 uM incubated for 120 mins by liquid scintillation counting analysis
# T2 sequence (P35462 whole entry): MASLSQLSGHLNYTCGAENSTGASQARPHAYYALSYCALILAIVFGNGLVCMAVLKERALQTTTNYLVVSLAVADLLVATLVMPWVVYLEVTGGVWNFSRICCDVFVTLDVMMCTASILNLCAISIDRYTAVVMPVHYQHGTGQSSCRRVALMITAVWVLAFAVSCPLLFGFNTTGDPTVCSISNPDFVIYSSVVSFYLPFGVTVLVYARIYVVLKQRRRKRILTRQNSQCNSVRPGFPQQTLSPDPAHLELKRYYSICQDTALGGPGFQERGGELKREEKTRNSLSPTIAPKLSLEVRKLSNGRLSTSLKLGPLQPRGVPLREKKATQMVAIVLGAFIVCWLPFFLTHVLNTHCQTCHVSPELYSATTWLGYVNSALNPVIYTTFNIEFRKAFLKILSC
# D(2) dopamine receptor [3] = molecular target: T3, D(2) dopamine receptor (Homo sapiens, UniProt P14416); test: Displacement of [3H]raclopride from human recombinant dopamine D2 long receptor expressed in CHO-K1 cells at 1 uM incubated for 120 mins by scintillation counting analysis
# T3 sequence (P14416 whole entry): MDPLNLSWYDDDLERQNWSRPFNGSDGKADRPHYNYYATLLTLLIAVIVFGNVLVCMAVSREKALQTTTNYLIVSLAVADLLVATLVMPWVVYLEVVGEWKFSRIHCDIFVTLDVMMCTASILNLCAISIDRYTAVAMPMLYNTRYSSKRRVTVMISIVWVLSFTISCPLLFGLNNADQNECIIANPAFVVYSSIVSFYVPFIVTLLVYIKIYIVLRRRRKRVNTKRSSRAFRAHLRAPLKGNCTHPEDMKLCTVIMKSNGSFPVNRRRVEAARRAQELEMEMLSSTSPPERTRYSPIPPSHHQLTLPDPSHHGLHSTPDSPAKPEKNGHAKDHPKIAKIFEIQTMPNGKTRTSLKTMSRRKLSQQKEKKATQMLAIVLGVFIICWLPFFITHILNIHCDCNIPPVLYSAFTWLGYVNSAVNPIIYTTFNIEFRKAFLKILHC
# Histamine H3 receptor [4] = molecular target: T4, Histamine H3 receptor (Homo sapiens, UniProt Q9Y5N1); test: Displacement of N-alpha-[methyl-3H]methylhistamine dihydrochloride from human recombinant histamine H3 receptor expressed in CHO-K1 cells at 1 uM incubated for 30 mins by liquid scintillation counting analysis
# T4 sequence (Q9Y5N1 whole entry): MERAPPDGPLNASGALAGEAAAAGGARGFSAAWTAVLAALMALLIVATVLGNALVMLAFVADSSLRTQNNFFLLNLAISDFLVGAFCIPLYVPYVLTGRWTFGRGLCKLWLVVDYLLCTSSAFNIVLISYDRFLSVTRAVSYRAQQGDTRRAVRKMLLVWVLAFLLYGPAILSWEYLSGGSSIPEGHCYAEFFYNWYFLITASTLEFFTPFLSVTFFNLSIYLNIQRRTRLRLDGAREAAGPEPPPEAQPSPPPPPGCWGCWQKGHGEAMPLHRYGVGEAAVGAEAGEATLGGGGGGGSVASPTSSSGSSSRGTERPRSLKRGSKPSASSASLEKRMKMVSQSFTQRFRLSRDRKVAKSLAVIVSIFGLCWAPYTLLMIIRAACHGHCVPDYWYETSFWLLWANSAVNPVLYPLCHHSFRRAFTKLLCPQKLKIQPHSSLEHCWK
# [5] = molecular target: T1, 5-hydroxytryptamine receptor 6; test: Displacement of [3H]LSD from human recombinant 5-HT6 receptor expressed in CHO-K1 cells incubated for 3 hrs by scintillation counting analysis
# D(3) dopamine receptor [6] = molecular target: T2, D(3) dopamine receptor; test: Displacement of [3H]raclopride from human recombinant dopamine D3 receptor expressed in CHO-K1 cells incubated for 120 mins by liquid scintillation counting analysis
# Histamine H3 receptor [7] = molecular target: T4, Histamine H3 receptor; test: Displacement of N-alpha-[methyl-3H]methylhistamine dihydrochloride from human recombinant histamine H3 receptor expressed in CHO-K1 cells incubated for 30 mins by liquid scintillation counting analysis
# D(2) dopamine receptor [8] = molecular target: T3, D(2) dopamine receptor; test: Displacement of [3H]raclopride from human recombinant dopamine D2 long receptor expressed in CHO-K1 cells incubated for 120 mins by scintillation counting analysis
# Homo sapiens [9] = species on record: Homo sapiens; test: Selectivity index, ratio of Ki for human recombinant dopamine D3 receptor expressed in CHO-K1 cells to Ki for dopamine D2 long receptor expressed in CHO-K1 cells
# Homo sapiens [10] = species on record: Homo sapiens; test: Selectivity index, ratio of Ki for human recombinant dopamine D3 receptor expressed in CHO-K1 cells to Ki for human recombinant 5-HT6 receptor expressed in CHO-K1 cells
# Homo sapiens [11] = species on record: Homo sapiens; test: Selectivity index, ratio of Ki for human recombinant dopamine D2 long receptor expressed in CHO-K1 cells to Ki for human recombinant 5-HT6 receptor expressed in CHO-K1 cells
# Homo sapiens [12] = species on record: Homo sapiens; test: Selectivity index, ratio of Ki for human recombinant histamine H3 receptor expressed in CHO-K1 cells to Ki for human recombinant 5-HT6 receptor expressed in CHO-K1 cells
# T1 sequence (P50406 whole entry): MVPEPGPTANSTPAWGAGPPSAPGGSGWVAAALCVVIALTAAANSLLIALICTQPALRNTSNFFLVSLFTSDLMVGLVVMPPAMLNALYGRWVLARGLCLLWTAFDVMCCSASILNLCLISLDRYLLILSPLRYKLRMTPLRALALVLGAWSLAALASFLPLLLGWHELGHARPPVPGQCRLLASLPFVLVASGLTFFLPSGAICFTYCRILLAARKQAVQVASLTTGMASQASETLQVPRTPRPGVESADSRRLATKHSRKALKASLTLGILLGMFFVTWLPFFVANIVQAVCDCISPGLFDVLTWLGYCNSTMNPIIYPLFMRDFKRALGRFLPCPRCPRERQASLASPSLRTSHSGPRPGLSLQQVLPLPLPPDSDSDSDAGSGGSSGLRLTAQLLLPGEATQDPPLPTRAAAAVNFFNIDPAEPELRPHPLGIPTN
SMILES,inhibition [1] [%],inhibition (D(3) dopamine receptor [2]) [%],inhibition (D(2) dopamine receptor [3]) [%],inhibition (Histamine H3 receptor [4]) [%],Ki [5] [nM],Ki (D(3) dopamine receptor [6]) [nM],Ki (Histamine H3 receptor [7]) [nM],Ki (D(2) dopamine receptor [8]) [nM],Ratio Ki (Homo sapiens [9]),Ratio Ki (Homo sapiens [10]),Ratio Ki (Homo sapiens [11]),Ratio Ki (Homo sapiens [12])
CCN1CCC(c2cccc3c2CCN3S(=O)(=O)c2ccccc2)CC1,59,58,25,50,170,591,317,–,–,–,–,–
O=S(=O)(c1ccccc1)N1CCc2c(N3CCN(C4CCC4)CC3)cccc21,51,60,60,59,266,449,580,355,–,–,–,–
O=S(=O)(c1ccccc1)N1CCc2c(C3CCN(C4CCC4)CC3)cccc21,1,9,48,82,–,–,214,1040,–,–,–,–
CCN1CCC(c2ccc3c(c2)CCN3S(=O)(=O)c2ccccc2)CC1,40,72,17,54,–,321,448,–,–,–,–,–
CCN1CCN(c2ccc3c(c2)CCN3S(=O)(=O)c2ccccc2)CC1,53,94,50,65,129,48,280,438,–,–,–,–

# More lines, in order of falling Ki [5], values ahead:
inhibition [1] [%],inhibition (D(3) dopamine receptor [2]) [%],inhibition (D(2) dopamine receptor [3]) [%],inhibition (Histamine H3 receptor [4]) [%],Ki [5] [nM],Ki (D(3) dopamine receptor [6]) [nM],Ki (Histamine H3 receptor [7]) [nM],Ki (D(2) dopamine receptor [8]) [nM],SMILES,Ratio Ki (Homo sapiens [9]),Ratio Ki (Homo sapiens [10]),Ratio Ki (Homo sapiens [11]),Ratio Ki (Homo sapiens [12])
86,48,14,59,128,401,299,–,CN1CCC(c2ccc3c(c2)CCN3S(=O)(=O)c2ccccc2)CC1,–,–,–,–
89,91,80,50,31,72,344,84,CCN1CCN(c2cccc3c2CCN3S(=O)(=O)c2ccccc2)CC1,1.5,–,–,–
94,14,14,14,9,–,–,–,CN1CCC(c2cccc3c2CN(S(=O)(=O)c2ccccc2)C3)CC1,–,> 100,> 100,> 100
101,16,17,4,0.43,–,–,–,O=S(=O)(c1ccccc1)N1Cc2cccc(C3CCNCC3)c2C1,–,> 100,> 100,> 100

# From ChEMBL document CHEMBL4477255, “Charting the chemical space around the (iso)indoline scaffold, a comprehensive approach towards multitarget directed ligands” (Bioorg Med Chem Lett, 2016)
